Columns and labels:
[1] = Toxicity in female BALB/cA nude mouse assessed as appearance of inflammatory lesions in heart at 25 mg/kg, iv administered once a week for 35 days by H and E staining based analysis; assay type: organism-based; conditions: in vivo, 840 h, time 35 day
[2] = Toxicity in female BALB/cA nude mouse assessed as inflammatory response in liver at 25 mg/kg, iv measured after 24 hrs by H and E staining based analysis; assay type: organism-based; conditions: in vivo
[3] = Volume of distribution in female BALB/c mouse at 25 mg/kg measured up to 120 hrs by HPLC analysis; assay type: ADME, organism-based; conditions: in vivo
[4] = Toxicity in female BALB/cA nude mouse assessed as appearance of inflammatory lesions in liver at 25 mg/kg, iv administered once a week for 35 days by H and E staining based analysis; assay type: organism-based; conditions: in vivo, 840 h, time 35 day
[5] = Toxicity in female BALB/cA nude mouse assessed as appearance of inflammatory lesions in spleen at 25 mg/kg, iv administered once a week for 35 days by H and E staining based analysis; assay type: organism-based; conditions: in vivo, 840 h, time 35 day
[6] = Toxicity in female BALB/cA nude mouse assessed as animal fatality at 25 mg/kg, iv administered once a week for 35 days; assay type: organism-based; conditions: in vivo, 840 h, time 35 day
[7] = Toxicity in female BALB/cA nude mouse assessed as fibrotic changes in kidney at 25 mg/kg, iv administered once a week for 35 days by H and E staining based analysis; assay type: organism-based; conditions: in vivo, 840 h, time 35 day
[8] = Toxicity in female BALB/cA nude mouse assessed as mortality at 38 mg/kg, iv administered twice per week measured after 107 days; assay type: organism-based; conditions: in vivo, 2568 h, time 107 day
[9] = Toxicity in female BALB/cA nude mouse assessed as damage in heart at 38 mg/kg, iv measured after 24 hrs by H and E staining based analysis; assay type: organism-based; conditions: in vivo
[10] = AUC (0 to t) in female BALB/c mouse at 38 mg/kg measured up to 168 hrs by HPLC analysis; assay type: ADME, organism-based; conditions: in vivo

Row | Structure (SMILES) | Activity [1] | Activity [2] | Vd [3] [L/kg] | Activity [4] | Activity [5] | Activity [6] | Activity [7] | Activity [8] | Activity [9] | AUC(0-t) at 168 h [10] [µg·h/mL]
1 | CCc1c2c(nc3ccc(OCc4ccc(O[C@@H]5O[C@H](C(=O)O)[C@@H](O)[C@H](O)[C@H]5O)c(NC(=O)CCNC(=O)CCCCCN5C(=O)C=CC5=O)c4)cc13)-c1cc3c(c(=O)n1C2)COC(=O)[C@]3(O)CC | Non-toxic | Toxic | 0.61 | Non-toxic | Non-toxic | Non-toxic | Non-toxic | – | – | –
2 | CCc1c2c(nc3ccc(OCc4ccc(O[C@@H]5O[C@H](C(=O)O)[C@@H](O)[C@H](O)[C@H]5O)c(NC(=O)CCNC(=O)COCCOCCNC(=O)COCCOCCNC(=O)CC[C@H](NC(=O)CCCCCCCCCCCCCCCCC(=O)O)C(=O)O)c4)cc13)-c1cc3c(c(=O)n1C2)COC(=O)[C@]3(O)CC | – | – | – | – | – | – | – | Non-toxic | Toxic | 837

— ChEMBL document CHEMBL6134851, “Comparative Study on Covalent and Noncovalent Endogenous Albumin-Binding β-Glucuronidase-Activated SN38 Prodrugs for Antitumor Efficacy” (J Med Chem, 2025)
